Consider 10 molecules from patent US10047051B2, “Substituted pyridines and method of use” (AbbVie S.á{acute over (.)}r.l., priority 2015, dated 2018).

Each structure is given as a SMILES string.

Type in all cases: cell-based
One test deals with T1, CFTR ΔF508 (Homo sapiens, UniProt P13569, DEL508-508).
T1 construct: host or cells: primary human bronchial epithelial cells from CF patients homozygous for ΔF508, pre-treated with VX809
In words: TECC assay, primary bronchial epithelial cells, CFTR ΔF508. As to conditions: primary bronchial epithelial cells of CF patients homozygous for CFTR ΔF508, treated with 3 μM VX809, increase in Isc after forskolin. As to the method:
The TECC (Tranepithelial Clamp Circuit, EP-design) assay measures the functionality of the cystic fibrosis Transmembrane Conductance regulator (CFTR) by measuring the short circuit current (Isc) generated over the basolateral and apical membrane of lung epithelial cells. In TECC the transepithelial potential PD and transepithelial resistance (Rt) are measured in an open circuit and transformed to Isc using Ohm's law. 24 Wells can be measured simultaneously allowing a higher throughput compared to Ussing chambers.
For this purpose, bronchial epithelial cells isolated from CF patients homozygous for the CFTR ΔF508 mutation (hAEC-CF, Epithelix) are plated on type IV collagen-coated Transwell® supports (Costar). Human airway epithelia are generated by provision of an air-liquid interface for 21 days to form well-differentiated polarized cultures that resemble in vivo pseudo-stratified ciliated epithelium (Fulcher, M. L., Gabriel, S., Burns, K. A., Yankaskas, J. R., Randell, S. H., 2005. Well-differentiated human airway epithelial cell cultures. Methods Mol. Med. 107, 183-206). In the case of the homozygous ΔF508 CFTR samples, the differentiated cells are treated with 3 μM VX809 (2626 South Loop West, Suite 225, Houston, Tex. 77054 USA, Cat n# S1565) to allow sufficient expression of properly folded CFTR protein on the membrane (48 hours basolateral treatment and 24 hours apical treatment), prior to electrophysiological recordings. For heterozygous G551D/ΔF508, differentiated cells are used as such for the recordings.
Information on the compounds can be retrieved on the homozygous ΔF508 CFTR samples looking at increased CFTR activity when compounds are added in an acute mode or in a chronic mode. On G551D/ΔF508 CFTR heterozygous samples compounds are added in an acute mode to the differentiated cells.
For the acute mode, for electrophysiological recording, the human airway epithelia are mounted in the TECC heating plate for electrophysiological measurement and kept at 37° C. The epithelia are bathed in a NaCl-Ringer solution (120 mM NaCl, 25 mM NaHCO3, 1.2 mM CaCl2, 1.2 mM MgCl2, 0.8 mM KH2PO4, 0.8 mM K2HPO4, pH 7.4, 5 mM glucose) on both the basolateral and apical sides. Apical amiloride is used to inhibit the endogenous ENaC currents while forkolin is applied on both apical and basolateral side to stimulate CFTR. After forskolin triggering, compounds are added on both sides to test their potential for increasing CFTR gating. Measurements are done during a 20 minute timeframe with recordings every 2 minutes. The increase in Isc is used as a measure for the increased CFTR activity, EC50 values can be generated by measuring impact of different concentrations of compound on Isc on primary cells, for this purpose each transwell is treated with a different compound concentration. Inh-172, an inhibitor specific for CFTR, is used to test the specificity of the tested compounds.
For the chronic mode, the differentiated cells are treated with 3 μM VX809 (2626 South Loop West, Suite 225, Houston, Tex. 77054 USA, Cat n# S1565) and potentiator compounds at different concentrations (48 hours basolateral treatment and 24 hours apical treatment), prior to electrophysiological recordings. For electrophysiological recording, the human airway epithelia are mounted in the TECC heating plate for electrophysiological measurement and kept at 37° C. The epithelia are bathed in a NaCl-Ringer solution (120 mM NaCl, 25 mM NaHCO3, 1.2 mM CaCl2, 1.2 mM MgCl2, 0.8 mM KH2PO4, 0.8 mM K2HPO4, pH 7.4, 5 mM glucose) on both the basolateral and apical sides. Apical amiloride is used to inhibit the endogenous ENaC currents while forkolin is applied on both apical and basolateral side to stimulate CFTR. Measurements are done during a 20 minute timeframe with recordings every 2 minutes. […]

The target of another test is T2, CFTR-G1349D (Homo sapiens, UniProt P13569, G1349D).
T2 construct: expressed in transfected cells
T2 sequence (P13569 whole entry G1349D): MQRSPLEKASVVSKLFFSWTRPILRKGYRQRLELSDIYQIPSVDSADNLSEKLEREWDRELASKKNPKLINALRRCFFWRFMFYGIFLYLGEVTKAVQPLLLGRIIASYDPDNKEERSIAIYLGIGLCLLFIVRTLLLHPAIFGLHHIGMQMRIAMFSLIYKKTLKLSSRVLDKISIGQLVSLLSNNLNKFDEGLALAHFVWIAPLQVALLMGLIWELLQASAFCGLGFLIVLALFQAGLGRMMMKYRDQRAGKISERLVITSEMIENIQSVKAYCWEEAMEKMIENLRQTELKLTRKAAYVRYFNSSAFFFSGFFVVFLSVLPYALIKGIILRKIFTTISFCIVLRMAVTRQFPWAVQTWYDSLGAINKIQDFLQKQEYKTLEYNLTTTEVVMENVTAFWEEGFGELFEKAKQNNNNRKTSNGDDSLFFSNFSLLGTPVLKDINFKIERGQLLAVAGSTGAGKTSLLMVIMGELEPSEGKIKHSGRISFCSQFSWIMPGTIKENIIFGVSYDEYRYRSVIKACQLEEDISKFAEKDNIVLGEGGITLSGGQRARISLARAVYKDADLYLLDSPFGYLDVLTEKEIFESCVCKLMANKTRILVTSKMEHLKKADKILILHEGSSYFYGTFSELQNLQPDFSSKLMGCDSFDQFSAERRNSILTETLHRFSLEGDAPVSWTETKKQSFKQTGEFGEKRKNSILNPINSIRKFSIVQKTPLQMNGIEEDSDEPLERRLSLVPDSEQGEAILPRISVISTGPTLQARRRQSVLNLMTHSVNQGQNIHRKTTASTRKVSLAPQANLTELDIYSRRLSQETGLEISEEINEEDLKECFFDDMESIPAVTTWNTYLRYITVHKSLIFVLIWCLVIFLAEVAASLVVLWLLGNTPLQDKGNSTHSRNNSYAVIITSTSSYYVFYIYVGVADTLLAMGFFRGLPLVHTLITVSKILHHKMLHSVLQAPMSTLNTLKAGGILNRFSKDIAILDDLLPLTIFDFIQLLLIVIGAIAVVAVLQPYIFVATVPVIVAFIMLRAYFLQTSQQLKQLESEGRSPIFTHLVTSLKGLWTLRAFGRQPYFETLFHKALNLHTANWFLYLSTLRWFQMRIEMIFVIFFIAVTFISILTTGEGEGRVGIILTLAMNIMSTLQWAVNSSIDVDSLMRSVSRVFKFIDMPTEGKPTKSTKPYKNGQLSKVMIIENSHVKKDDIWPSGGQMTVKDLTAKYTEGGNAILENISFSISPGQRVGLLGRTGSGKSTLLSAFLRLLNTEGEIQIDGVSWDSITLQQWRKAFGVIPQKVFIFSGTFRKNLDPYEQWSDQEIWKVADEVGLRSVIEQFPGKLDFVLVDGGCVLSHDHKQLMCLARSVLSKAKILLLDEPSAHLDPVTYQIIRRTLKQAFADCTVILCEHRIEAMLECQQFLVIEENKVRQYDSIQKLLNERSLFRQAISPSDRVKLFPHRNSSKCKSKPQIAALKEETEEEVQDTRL
In words: YFP-halide influx assay for the CFTR-G1349D. The gist of the method:
(§1)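 HEK293 cells reverse-transfected with a CFTR mutant and YFP H148Q/I152L/F47L halide sensor, expressed 24 h at 37° C. Fluorescence quenching followed for 7 s after I⁻ injection; activity expressed as 1−F/F0, with EC50 fitted from 1−F/F0 versus compound concentration.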

The next test has as its target T3, CFTR-R117H (Homo sapiens, UniProt P13569, R117H).
T3 construct: expressed in transfected cells
Briefly: YFP-halide influx assay for the CFTR-R117H. The gist of the method: as §1

The next test concerns the target T4, CFTR G551D mutant (Homo sapiens, UniProt P13569, G551D).
T4 construct: expressed in transfected cells; host or cells: HEK293 cells, reverse transfection with plasmids
Briefly: YFP-halide influx assay for the CFTR-G551D mutation (HEK293 cells). As to conditions: forskolin 10.67 μM. The gist of the method: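 Channel opening read as I⁻-driven quenching of a YFP H148Q/I152L/F47L reporter over 7 s post-injection, expressed as 1−F/F0 and fitted against concentration for EC50. Cells were HEK293 co-transfected at seeding with G551D CFTR plus reporter, then grown 24 h at 37 °C, 5% CO2.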

Another test concerns the target T5, CFTR-G178R (Homo sapiens, UniProt P13569, G178R).
T5 construct: expressed in transfected cells
In words: YFP-halide influx assay for the CFTR-G178R. The essentials: as §1

The next test has as its target T6, CFTR-S549N (Homo sapiens, UniProt P13569, S549N).
T6 construct: expressed in transfected cells
In words: YFP-halide influx assay for the CFTR-S549N. More on the design: % Activation: concentration or dose not given beside the values. The gist of the method:
as §1

T6 sequence (P13569 whole entry S549N): as the sequence (P13569 whole entry G1349D) above, with S549N, D1349G counted along it
T4 sequence (P13569 whole entry G551D): as the sequence (P13569 whole entry G1349D) above, with G551D, D1349G counted along it
T3 sequence (P13569 whole entry R117H): as the sequence (P13569 whole entry G1349D) above, with R117H, D1349G counted along it
T5 sequence (P13569 whole entry G178R): as the sequence (P13569 whole entry G1349D) above, with G178R, D1349G counted along it
T1 sequence (P13569 with tags, fused parts or gaps DEL508-508): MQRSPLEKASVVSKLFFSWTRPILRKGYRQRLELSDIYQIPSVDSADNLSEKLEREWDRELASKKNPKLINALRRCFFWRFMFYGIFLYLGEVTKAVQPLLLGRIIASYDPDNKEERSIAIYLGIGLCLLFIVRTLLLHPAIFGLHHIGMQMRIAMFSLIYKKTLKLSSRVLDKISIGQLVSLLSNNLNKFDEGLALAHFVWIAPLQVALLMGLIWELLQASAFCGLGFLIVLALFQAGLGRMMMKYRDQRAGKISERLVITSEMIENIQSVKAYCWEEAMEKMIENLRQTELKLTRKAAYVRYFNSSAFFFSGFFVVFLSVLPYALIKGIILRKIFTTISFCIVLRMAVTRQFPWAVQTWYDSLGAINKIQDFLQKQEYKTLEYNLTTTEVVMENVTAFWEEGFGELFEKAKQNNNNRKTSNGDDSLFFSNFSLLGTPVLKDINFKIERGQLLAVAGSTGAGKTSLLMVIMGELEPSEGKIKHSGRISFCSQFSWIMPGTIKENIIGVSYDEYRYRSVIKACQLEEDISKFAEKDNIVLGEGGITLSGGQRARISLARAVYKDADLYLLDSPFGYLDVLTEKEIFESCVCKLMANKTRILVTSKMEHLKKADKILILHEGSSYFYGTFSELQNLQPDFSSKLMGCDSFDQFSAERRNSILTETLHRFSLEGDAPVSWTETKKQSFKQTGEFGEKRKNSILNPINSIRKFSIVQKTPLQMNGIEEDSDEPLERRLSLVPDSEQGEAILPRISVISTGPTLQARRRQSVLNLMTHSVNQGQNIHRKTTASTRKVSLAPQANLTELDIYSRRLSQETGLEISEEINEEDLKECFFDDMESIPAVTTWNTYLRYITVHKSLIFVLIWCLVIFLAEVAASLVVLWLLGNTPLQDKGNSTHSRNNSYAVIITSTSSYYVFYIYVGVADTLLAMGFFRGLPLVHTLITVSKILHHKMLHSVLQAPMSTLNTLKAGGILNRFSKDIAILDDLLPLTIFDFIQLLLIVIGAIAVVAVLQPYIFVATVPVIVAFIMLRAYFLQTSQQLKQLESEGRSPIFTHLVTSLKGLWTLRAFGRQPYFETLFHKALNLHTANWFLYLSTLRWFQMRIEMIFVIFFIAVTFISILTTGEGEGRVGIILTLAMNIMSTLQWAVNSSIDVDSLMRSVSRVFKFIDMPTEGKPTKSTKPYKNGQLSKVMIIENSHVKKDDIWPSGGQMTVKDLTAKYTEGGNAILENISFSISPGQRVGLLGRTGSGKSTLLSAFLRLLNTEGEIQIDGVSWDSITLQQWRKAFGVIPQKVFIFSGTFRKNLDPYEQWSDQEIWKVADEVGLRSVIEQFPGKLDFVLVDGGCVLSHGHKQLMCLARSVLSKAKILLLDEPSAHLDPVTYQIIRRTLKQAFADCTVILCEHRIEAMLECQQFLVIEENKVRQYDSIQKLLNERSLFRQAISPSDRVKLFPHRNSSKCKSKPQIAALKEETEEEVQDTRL

For the molecule `CC(C)(O)CNC(=O)c1ncc(S(=O)(=O)c2ccc(OC(F)(F)F)cc2)cc1N` [Compound 1, 3-amino-N-(2-hydroxy-2-methylpropyl)-5-{[4-(trifluoromethoxy)phenyl]sulfonyl}pyridine-2-carboxamide], the EC50 on CFTR ΔF508 was 95.9 nM; at CFTR-G1349D, 265 nM; on CFTR-R117H it was 598 nM; at CFTR G551D mutant it was 700 nM; on CFTR-G178R, 302 nM; at CFTR-S549N, 580 nM. Moreover, the “% Activation” value is reported as 69.6% on CFTR-G1349D; 98.5% on CFTR-R117H; 47.1% on CFTR G551D mutant; 82.7% on CFTR-G178R; 72.7% on CFTR-S549N.

As for `Nc1cc(S(=O)(=O)c2ccc(OC(F)(F)F)cc2)cnc1C(=O)NC[C@@H](O)C(F)(F)F` [Compound 37, 3-amino-N-[(2R)-3,3,3-trifluoro-2-hydroxypropyl]-5-{[4-(trifluoromethoxy)phenyl]sulfonyl}pyridine-2-carboxamide], the figures for the EC50 at CFTR ΔF508 and at CFTR G551D mutant were 13.2 nM and 271 nM, respectively. Besides, the “% Activation” value at CFTR G551D mutant turned out to be 83.7%.

Take `Nc1cc(S(=O)(=O)c2ccccc2OC(F)(F)F)cnc1C(=O)NC[C@@H](O)C(F)(F)F` [Compound 81, 3-amino-N-[(2R)-3,3,3-trifluoro-2-hydroxypropyl]-5-{[2-(trifluoromethoxy)phenyl]sulfonyl}pyridine-2-carboxamide]: the concentration for a half-maximal effect (EC50) at CFTR ΔF508 was determined as 9.49 nM; at CFTR-G1349D it was 9.54 nM; at CFTR-R117H, 21.8 nM; on CFTR G551D mutant, 239 nM; at CFTR-G178R it was 12.6 nM; on CFTR-S549N it was 11.1 nM. Further, the “% Activation” value on CFTR-G1349D is 96.01%; on CFTR-R117H, 113.2%; on CFTR G551D mutant it was 108.0%; on CFTR-G178R, 104.8%; on CFTR-S549N it was 107%.

As for `Nc1cc(S(=O)(=O)c2ccc(OC(F)(F)F)cc2)cnc1C(=O)NCCO` [Compound 14, 3-amino-N-(2-hydroxyethyl)-5-{[4-(trifluoromethoxy)phenyl]sulfonyl}pyridine-2-carboxamide], the “% Activation” value on CFTR-G1349D came to 66.7%; at CFTR-R117H, 89.7%; on CFTR G551D mutant, 71.6%; on CFTR-G178R it was 70.7%; on CFTR-S549N, 68.9%. Moreover, the 50% effective concentration (EC50) at CFTR-G1349D worked out at 816 nM; at CFTR-R117H it was 943 nM; at CFTR G551D mutant it was 1330 nM; on CFTR-G178R, 741 nM; on CFTR-S549N, 1100 nM.

Turning to `C[C@H](O)CNC(=O)c1ncc(S(=O)(=O)c2ccc(C(F)(F)F)cc2)cc1N` [Compound 100, 3-amino-N-[(2S)-2-hydroxypropyl]-5-{[4-(trifluoromethyl)phenyl]sulfonyl}pyridine-2-carboxamide], the “% Activation” value at CFTR-G1349D is recorded as 75.5%; at CFTR-R117H, 97.3%; on CFTR G551D mutant it was 59.1%; on CFTR-G178R, 78.7%; on CFTR-S549N, 103.0%. The EC50 is 533 nM on CFTR-G1349D; 505 nM at CFTR-R117H; 1140 nM on CFTR G551D mutant; 546 nM on CFTR-G178R; 648 nM on CFTR-S549N.

With `CC(O)(CNC(=O)c1ncc(S(=O)(=O)c2ccc(OC(F)(F)F)cc2)cc1N)C(F)(F)F` (centres unmarked) [Compound 2, 3-amino-N-(3,3,3-trifluoro-2-hydroxy-2-methylpropyl)-5-{[4-(trifluoromethoxy)phenyl]sulfonyl}pyridine-2-carboxamide], the 50% effective concentration (EC50) at CFTR ΔF508 came out at 47.1 nM; at CFTR-G1349D, 567 nM; on CFTR-R117H, 231 nM; on CFTR G551D mutant, 739 nM; at CFTR-G178R it was 494 nM; at CFTR-S549N it was 331 nM. Also, the “% Activation” value on CFTR-G1349D was 69.4%; on CFTR-R117H it was 76.0%; on CFTR G551D mutant, 62.5%; at CFTR-G178R, 71.8%; at CFTR-S549N, 70.3%.

Regarding `Nc1cc(S(=O)(=O)c2ccc(OC(F)(F)F)cc2)cnc1C(=O)N1CC(O)C1` [Compound 32, (3-amino-5-{[4-(trifluoromethoxy)phenyl]sulfonyl}pyridin-2-yl)(3-hydroxyazetidin-1-yl)methanone], the EC50 at CFTR ΔF508 worked out at 72.9 nM; on CFTR-G1349D, 536 nM; on CFTR-R117H it was 460 nM; on CFTR G551D mutant, 1940 nM; at CFTR-G178R, 522 nM; on CFTR-S549N, 711 nM. Besides, the “% Activation” value stood at 88.0% at CFTR-G1349D; 91.3% at CFTR-R117H; 65.8% on CFTR G551D mutant; 78.0% at CFTR-G178R; 91.7% on CFTR-S549N.

For `C[C@H](O)CNC(=O)c1ncc(S(=O)(=O)c2ccc(OC(F)(F)F)cc2)cc1N` [Compound 21, 3-amino-N-[(2S)-2-hydroxypropyl]-5-{[4-(trifluoromethoxy)phenyl]sulfonyl}pyridine-2-carboxamide], the EC50 on CFTR ΔF508 stood at 35.5 nM; at CFTR-G1349D, 498 nM; at CFTR-R117H, 289 nM; on CFTR G551D mutant, 1200 nM; on CFTR-G178R, 284 nM; on CFTR-S549N, 748 nM. The “% Activation” value at CFTR-G1349D is 88.9%; at CFTR-R117H, 93.3%; on CFTR G551D mutant, 85.1%; on CFTR-G178R, 86.1%; on CFTR-S549N, 86.4%.

Turning to `Nc1cc(S(=O)(=O)c2ccc(OC(F)(F)F)cc2)cnc1C(=O)NCC(O)COCC1CC1` (centres unmarked) [Compound 31, 3-amino-N-[3-(cyclopropylmethoxy)-2-hydroxypropyl]-5-{[4-(trifluoromethoxy)phenyl]sulfonyl}pyridine-2-carboxamide], the EC50 was determined as 48.4 nM on CFTR ΔF508; 511 nM at CFTR-G1349D; 866 nM at CFTR-R117H; 425 nM at CFTR G551D mutant; 348 nM at CFTR-G178R; 567 nM on CFTR-S549N. Further, the “% Activation” value is recorded as 86.8% at CFTR-G1349D; 100.0% on CFTR-R117H; 71.7% at CFTR G551D mutant; 84.3% on CFTR-G178R; 91.4% on CFTR-S549N.

For the molecule `Nc1cc(S(=O)(=O)c2ccc(OC(F)(F)F)cc2)cnc1C(=O)NC[C@H](O)C(F)(F)F` [Compound 26, 3-amino-N-[(2S)-3,3,3-trifluoro-2-hydroxypropyl]-5-{[4-(trifluoromethoxy)phenyl]sulfonyl}pyridine-2-carboxamide], on CFTR ΔF508, the concentration for a half-maximal effect (EC50) worked out at 24 nM. In addition, on CFTR G551D mutant, the “% Activation” value amounted to 80.8% and it took 315 nM to reach a half-maximal effect (EC50).

The EC50 is the midpoint of the concentration-response curve.
